{"source": "paper PMC12851581", "about": "“Allosteric effects of the coupling cation in melibiose transporter MelB” (eLife, 2026)", "key": {"[1]": {"target": "T1, melibiose permease MelBSt (WT) (Salmonella enterica, UniProt P30878)", "T1 sequence (P30878 whole entry)": "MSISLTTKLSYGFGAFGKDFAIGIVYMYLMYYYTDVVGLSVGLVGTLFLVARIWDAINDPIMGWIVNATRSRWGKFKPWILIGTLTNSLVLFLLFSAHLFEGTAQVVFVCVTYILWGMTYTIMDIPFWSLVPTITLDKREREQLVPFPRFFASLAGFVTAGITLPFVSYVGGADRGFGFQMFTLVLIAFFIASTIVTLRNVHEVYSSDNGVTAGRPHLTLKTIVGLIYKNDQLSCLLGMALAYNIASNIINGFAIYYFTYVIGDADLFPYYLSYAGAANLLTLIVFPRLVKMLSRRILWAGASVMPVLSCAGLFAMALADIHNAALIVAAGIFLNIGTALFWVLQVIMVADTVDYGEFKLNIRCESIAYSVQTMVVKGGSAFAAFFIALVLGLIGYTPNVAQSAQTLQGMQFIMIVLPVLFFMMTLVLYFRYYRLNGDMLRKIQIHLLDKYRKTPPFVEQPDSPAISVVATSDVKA", "assay": "α-NPG downhill transport in E. coli DW2 cells (p-nitrophenol release)", "assay_type": "cell-based", "parameters": "gene melB; WT MelBSt/CHis10 expressed in E. coli DW2 cells"}, "[2]": {"target": "T1, melibiose permease MelBSt (WT)", "assay": "ITC, […] NaCl, […] °C", "assay_type": "binding", "parameters": "gene melB; WT MelBSt/CHis10"}, "[3]": {"target": "T1, melibiose permease MelBSt (WT)", "assay": "ITC, […] NaCl, […] °C; [3H]raffinose transport in cells", "assay_type": "binding", "parameters": "gene melB; WT MelBSt/CHis10"}}}
{"compound": "O=[N+]([O-])c1ccc(O[C@H]2O[C@H](CO)[C@H](O)[C@H](O)[C@H]2O)cc1", "note": "[α-NPG, p-Nitrophenyl α-D-galactoside]", "values": [{"measurement": "α-NPG downhill transport in E. coli DW2 cells (p-nitrophenol release)", "setting": "[1]", "result": "both WT MelBSt and D59C uniport mutant mediated the translocation of α-NPG"}]}
{"compound": "CO[C@H]1O[C@H](CO)[C@H](O)[C@H](O)[C@H]1O", "note": "[α-MG, methyl α-D-galactoside]", "values": [{"measurement": "Kd", "setting": "[2]", "result": "880 ± 40", "unit": "µM"}]}
{"compound": "OC[C@H]1O[C@H](OC[C@H]2O[C@H](O[C@]3(CO)O[C@H](CO)[C@@H](O)[C@@H]3O)[C@H](O)[C@@H](O)[C@@H]2O)[C@H](O)[C@@H](O)[C@H]1O", "note": "[raffinose, Raffinose]", "values": [{"measurement": "Kd", "setting": "[3]", "result": "3790 ± 530", "unit": "µM"}]}
